Laboratory results: patent publication US7579356B2, “Thia-tetraazaacenaphthylene kinase inhibitors” (Janssen Pharmaceutica NV, priority 2005, dated 2009)
pIC50: −log10 of the molar value.

How the values were obtained:
EGFR = target: T1, EGFR (Homo sapiens, UniProt P00533); assay: EGFR Kinase Assay; assay type: biochemical; conditions: for inhibition at 2 µM: test concentration of 2 μM, compounds without an IC50, read-out: EGFR inhibition in percent; for pIC50: GST-EGFR, ATP 5 μM
T1 construct: The intracellular portion of EGFR started at nucleotide 2189 (corresponding to amino acid 667) and ended at the termination codon; made in house; host or cells: Sf9 insect cells (baculovirus)
Outline: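 GST-fused human EGFR intracellular domain (from aa 667), Sf9-expressed, phosphorylated biotinylated polyGluTyr with 5 μM ATP plus γ-33P ATP in Tris pH 8.0, MgCl2, vanadate, 1 mM DTT, 1 h at 30 °C. Streptavidin Flashplate scintillation read; triplicate 16-point half-log series from 200 uM; IC50 from % inhibition vs log concentration, else % inhibition at 2 μM.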

HER-2 = target: T2, HER-2 (Homo sapiens, UniProt P04626); assay: HER-2 Kinase Assay; assay type: biochemical; conditions: for pIC50: value in parentheses; for inhibition at 1 µM: test concentration of 1 μM
T2 construct: His6 with thrombin site (N); purchased Proqinase (Freiburg, Germany)
Outline: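 GST/HIS6-tagged HER-2 aa 679–1255 kinase with biotinylated polyGluTyr (1.5 ng/μL), 1 μM ATP plus γ-33P-ATP, Mg2+/Mn2+, DTT, Hepes pH 7.5; 1 h at 30 °C. Substrate phosphorylation captured on streptavidin scintillation plates after EDTA/PBS washes; values are % inhibition at 1 μM or IC50.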

T1 sequence (P00533 669-1210 limits assumed): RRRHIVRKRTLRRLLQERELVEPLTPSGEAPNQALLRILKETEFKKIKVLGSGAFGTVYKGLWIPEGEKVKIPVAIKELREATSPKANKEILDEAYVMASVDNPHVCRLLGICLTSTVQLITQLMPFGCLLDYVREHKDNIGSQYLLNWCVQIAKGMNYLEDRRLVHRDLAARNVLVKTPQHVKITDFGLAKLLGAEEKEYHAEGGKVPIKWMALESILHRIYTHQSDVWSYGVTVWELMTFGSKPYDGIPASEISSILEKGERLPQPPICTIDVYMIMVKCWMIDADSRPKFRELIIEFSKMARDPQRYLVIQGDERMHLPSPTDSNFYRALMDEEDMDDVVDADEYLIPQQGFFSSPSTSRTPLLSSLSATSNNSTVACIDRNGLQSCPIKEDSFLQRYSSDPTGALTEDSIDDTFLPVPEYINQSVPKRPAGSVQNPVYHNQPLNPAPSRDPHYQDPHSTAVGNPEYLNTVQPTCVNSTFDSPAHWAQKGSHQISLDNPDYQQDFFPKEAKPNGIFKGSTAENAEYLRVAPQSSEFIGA
T2 sequence (P04626 679-1255): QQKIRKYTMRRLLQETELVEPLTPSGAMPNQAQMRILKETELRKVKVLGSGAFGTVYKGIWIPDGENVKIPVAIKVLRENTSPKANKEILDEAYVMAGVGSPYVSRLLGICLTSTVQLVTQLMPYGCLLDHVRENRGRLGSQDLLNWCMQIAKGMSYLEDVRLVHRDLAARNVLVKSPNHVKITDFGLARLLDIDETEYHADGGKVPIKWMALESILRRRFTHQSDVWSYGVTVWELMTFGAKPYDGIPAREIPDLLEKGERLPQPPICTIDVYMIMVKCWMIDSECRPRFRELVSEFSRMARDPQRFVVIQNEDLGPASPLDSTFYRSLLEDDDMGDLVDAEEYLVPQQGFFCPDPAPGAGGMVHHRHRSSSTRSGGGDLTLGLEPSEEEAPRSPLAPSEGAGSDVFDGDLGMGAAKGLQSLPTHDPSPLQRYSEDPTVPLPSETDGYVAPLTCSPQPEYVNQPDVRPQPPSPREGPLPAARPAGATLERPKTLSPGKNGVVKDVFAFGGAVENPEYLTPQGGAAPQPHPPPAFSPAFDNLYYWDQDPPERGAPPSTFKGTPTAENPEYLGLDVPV

Structure (SMILES) | inhibition at 2 µM (EGFR) [%] | pIC50 (HER-2) | pIC50 (EGFR) | inhibition at 1 µM (HER-2) [%]
CCOC(=O)c1sc2ncnc3c2c1NC(=O)N3c1ccc(C)c(Br)c1 [Cpd 102, 5-(3-bromo-4-methyl-phenyl)-4-oxo-4,5-dihydro-3H-1-thia-3,5,6,8-tetraaza-acenaphthylene-2-carboxylic acid ethyl ester] | 17 | < 4.00 |  | 
Cc1ccc(N2C(=O)Nc3c(C(=O)NC4CCN(C)CC4)sc4ncnc2c34)cc1Br [Cpd 116, 5-(3-bromo-4-methyl-phenyl)-4-oxo-4,5-dihydro-3H-1-thia-3,5,6,8-tetraaza-acenaphthylene-2-carboxylic acid (1-methyl-piperidin-4-yl)-amide] |  | 5.77 | 6.84 | 
O=C(O)c1sc2ncnc3c2c1NC(=O)N3c1ccc2c(cnn2Cc2cccc(F)c2)c1 [Cpd 79, 5-[1-(3-fluoro-benzyl)-1H-indazol-5-yl]-4-oxo-4,5-dihydro-3H-1-thia-3,5,6,8-tetraaza-acenaphthylene-2-carboxylic acid] |  | < 5.00 | 6.52 | 
O=C(Nc1ccc(CN2CCCCC2)cc1)c1sc2ncnc3c2c1NC(=O)N3c1ccc2c(ccn2Cc2cccc(F)c2)c1 [Cpd 87, 5-[1-(3-fluoro-benzyl)-1H-indol-5-yl]-4-oxo-4,5-dihydro-3H-1-thia-3,5,6,8-tetraaza-acenaphthylene-2-carboxylic acid (4-piperidin-1-ylmethyl-phenyl)-amide] |  | 6.82 | 6.95 | 
O=C(Nc1ccc(CN2CCOCC2)cc1)c1sc2ncnc3c2c1NC(=O)N3c1ccc(Oc2ccccc2)cc1 [Cpd 97, 4-oxo-5-(4-phenoxy-phenyl)-4,5-dihydro-3H-1-thia-3,5,6,8-tetraaza-acenaphthylene-2-carboxylic acid (4-morpholin-4-ylmethyl-phenyl)-amide] |  | 7.57 | 7.89 | 97
CN1CCN(Cc2ccc(NC(=O)c3sc4ncnc5c4c3NC(=O)N5c3ccc(Oc4ccccc4)cc3)cc2)CC1 [Cpd 98, 4-oxo-5-(4-phenoxy-phenyl)-4,5-dihydro-3H-1-thia-3,5,6,8-tetraaza-acenaphthylene-2-carboxylic acid [4-(4-methyl-piperazin-1-ylmethyl)-phenyl]-amide] |  | 7.06 | 7.66 | 95
Cc1ccc(Br)cc1N1C(=O)Nc2c(C(=O)NC3CCN(C)CC3)sc3ncnc1c23 [Cpd 117, 5-(5-bromo-2-methyl-phenyl)-4-oxo-4,5-dihydro-3H-1-thia-3,5,6,8-tetraaza-acenaphthylene-2-carboxylic acid (1-methyl-piperidin-4-yl)-amide] |  | 4.89 | 5.75 | 
CCOC(=O)c1sc2ncnc3c2c1NC(=O)N3c1ccc(Oc2ccc(F)cc2)cc1 [Cpd 101, 5-[4-(4-fluoro-phenoxy)-phenyl]-4-oxo-4,5-dihydro-3H-1-thia-3,5,6,8-tetraaza-acenaphthylene-2-carboxylic acid ethyl ester] | 18 | < 4.00 |  | 
COc1ccc(Cl)c(N2C(=O)Nc3c(C(=O)Nc4ccc(OC)c(OC)c4)sc4ncnc2c34)c1 [Cpd 49, 5-(2-chloro-5-methoxy-phenyl)-4-oxo-4,5-dihydro-3H-1-thia-3,5,6,8-tetraaza-acenaphthylene-2-carboxylic acid (3,4-dimethoxy-phenyl)-amide] | 25 |  |  | -5
O=C(Nc1ccc(CN2CCCCC2)cc1)c1sc2ncnc3c2c1NC(=O)N3c1ccc(OCc2ccccn2)c(Cl)c1 [Cpd 89, 5-[3-chloro-4-(pyridin-2-ylmethoxy)-phenyl]-4-oxo-4,5-dihydro-3H-1-thia-3,5,6,8-tetraaza-acenaphthylene-2-carboxylic acid (4-piperidin-1-ylmethyl-phenyl)-amide] |  | 7.16 | 7.47 | 93
COc1cc(N2C(=O)Nc3c(C(=O)Nc4ccc(CN5CCN(C)CC5)cc4)sc4ncnc2c34)c(Cl)cc1Cl [Cpd 60] | 29 |  |  | 22
O=C(O)c1sc2ncnc3c2c1NC(=O)N3c1ccc(OCc2ccccn2)c(Cl)c1 [Cpd 38, 5-[3-chloro-4-(pyridin-2-ylmethoxy)-phenyl]-4-oxo-4,5-dihydro-3H-1-thia-3,5,6,8-tetraaza-acenaphthylene-2-carboxylic acid] |  |  | 6.04 | -7
COc1ccc(Cl)c(N2C(=O)Nc3c(C(=O)Nc4ccc(CN5CCOCC5)cc4)sc4ncnc2c34)c1 [Cpd 51, 5-(2-chloro-5-methoxy-phenyl)-4-oxo-4,5-dihydro-3H-1-thia-3,5,6,8-tetraaza-acenaphthylene-2-carboxylic acid (4-morpholin-4-ylmethyl-phenyl)-amide] | 53 |  |  | 28
O=C(Nc1ccc(CN2CCOCC2)cc1)c1sc2ncnc3c2c1NC(=O)N3c1ccc(Oc2ccc(F)cc2)cc1 [Cpd 110, 5-[4-(4-fluoro-phenoxy)-phenyl]-4-oxo-4,5-dihydro-3H-1-thia-3,5,6,8-tetraaza-acenaphthylene-2-carboxylic acid (4-morpholin-4-ylmethyl-phenyl)-amide] |  | 6.79 | 7.47 | 
O=C(Nc1ccc(CN2CCOCC2)cc1)c1sc2ncnc3c2c1NC(=O)N3c1c(Cl)ccc2c1OCO2 [Cpd 62, 5-(5-chloro-benzo[1,3]dioxol-4-yl)-4-oxo-4,5-dihydro-3H-1-thia-3,5,6,8-tetraaza-acenaphthylene-2-carboxylic acid (4-morpholin-4-ylmethyl-phenyl)-amide] |  | 6.28 | 6.45 | 
CC(C)(C)OC(=O)N1CCC(NC(=O)c2sc3ncnc4c3c2NC(=O)N4c2ccc3c(ccn3Cc3cccc(F)c3)c2)CC1 [Cpd 91, 4-({5-[1-(3-fluoro-benzyl)-1H-indol-5-yl]-4-oxo-4,5-dihydro-3H-1-thia-3,5,6,8-tetraaza-acenaphthylene-2-carbonyl}-amino)-piperidine-1-carboxylic acid tert-butyl ester] |  | 5.66 | 6.77 | 
CCOC(=O)c1sc2ncnc3c2c1NC(=O)N3c1ccc2c(cnn2Cc2cccc(F)c2)c1 [Cpd 78, 5-[1-(3-fluoro-benzyl)-1H-indazol-5-yl]-4-oxo-4,5-dihydro-3H-1-thia-3,5,6,8-tetraaza-acenaphthylene-2-carboxylic acid ethyl ester] |  | < 4.00 | 5.65 | 
O=C(Nc1ccc(CN2CCCCC2)cc1)c1sc2ncnc3c2c1NC(=O)N3c1ccc2c(cnn2Cc2cccc(F)c2)c1 [Cpd 80, 5-[1-(3-fluoro-benzyl)-1H-indazol-5-yl]-4-oxo-4,5-dihydro-3H-1-thia-3,5,6,8-tetraaza-acenaphthylene-2-carboxylic acid (4-piperidin-1-ylmethyl-phenyl)-amide] |  | 6.92 | 7.44 | 
COC(=O)c1sc2ncnc3c2c1NC(=O)N3c1c(Cl)ccc2c1OCO2 [Cpd 54, 5-(5-chloro-benzo[1,3]dioxol-4-yl)-4-oxo-4,5-dihydro-3H-1-thia-3,5,6,8-tetraaza-acenaphthylene-2-carboxylic acid methyl ester] | 25 |  |  | 3
CN1CCC(NC(=O)c2sc3ncnc4c3c2NC(=O)N4c2ccc3c(ccn3Cc3cccc(F)c3)c2)CC1 [Cpd 92, 5-[1-(3-fluoro-benzyl)-1H-indol-5-yl]-4-oxo-4,5-dihydro-3H-1-thia-3,5,6,8-tetraaza-acenaphthylene-2-carboxylic acid (1-methyl-piperidin-4-yl)-amide] |  | 6.44 | 7.35 | 
O=C(Nc1ccc(CN2CCCCC2)cc1)c1sc2ncnc3c2c1NC(=O)N3c1ccc(Oc2ccccc2)cc1 [Cpd 96, 4-oxo-5-(4-phenoxy-phenyl)-4,5-dihydro-3H-1-thia-3,5,6,8-tetraaza-acenaphthylene-2-carboxylic acid (4-piperidin-1-ylmethyl-phenyl)-amide] |  | 7.39 | 8.00 | 98
O=C(Nc1ccc(CN2CCCCC2)cc1)c1sc2ncnc3c2c1NC(=O)N3c1ccc(Sc2ccccc2)cc1 [Cpd 169, 4-oxo-5-(4-phenylsulfanyl-phenyl)-4,5-dihydro-3H-1-thia-3,5,6,8-tetraaza-acenaphthylene-2-carboxylic acid (4-piperidin-1-ylmethyl-phenyl)-amide] |  | 7.59 | 7.54 | 
O=C(Nc1ccc(CN2CCOCC2)cc1)c1sc2ncnc3c2c1NC(=O)N3c1ccc(OCc2ccccn2)c(Cl)c1 [Cpd 52, 5-[3-chloro-4-(pyridin-2-ylmethoxy)-phenyl]-4-oxo-4,5-dihydro-3H-1-thia-3,5,6,8-tetraaza-acenaphthylene-2-carboxylic acid (4-morpholin-4-ylmethyl-phenyl)-amide] |  | 6.61 | 7.29 | 95
O=C(Nc1ccc(CN2CCOCC2)cc1)c1sc2ncnc3c2c1NC(=O)N3c1ccc(Oc2ccccc2)c(F)c1 [Cpd 113, 5-(3-fluoro-4-phenoxy-phenyl)-4-oxo-4,5-dihydro-3H-1-thia-3,5,6,8-tetraaza-acenaphthylene-2-carboxylic acid (4-morpholin-4-ylmethyl-phenyl)-amide] |  | 7.05 | 7.68 | 83
O=C(Nc1ccc(N2CCOCC2)cc1)c1sc2ncnc3c2c1NC(=O)N3c1ccc2c(ccn2Cc2cccc(F)c2)c1 [Cpd 94, 5-[1-(3-fluoro-benzyl)-1H-indol-5-yl]-4-oxo-4,5-dihydro-3H-1-thia-3,5,6,8-tetraaza-acenaphthylene-2-carboxylic acid (4-morpholin-4-yl-phenyl)-amide] |  | ~5.00 | 6.58 | 
